Data reported in patent publication US9499535B2, “Kinase inhibitors” (ORIGENIS GMBH, priority 2011, dated 2016).
Where two headings read alike, the source gives them in different places.

Columns and labels:
SYK kinase = molecular target: T1, SYK kinase (Homo sapiens, UniProt P43405); test: SYK assay (OMNIA Kinase Assay, Invitrogen); format: biochemical; settings: apparent Ki calculated from the IC50 using the Cheng-Prusoff equation; 1 mM ATP, 10 μM Peptide Substrate; read-out: SYK Activities: Ki
T1 construct: purchased Invitrogen, Carlsbad
Method in brief: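 Reaction velocities were measured from kinetic fluorescence reads (360/485 nm, every 30 s over 30 min) of Mg2+-chelated SOX signal. Conditions were 1 mM ATP, 10 μM Omnia Tyr 7 peptide and 0.2 mM DTT at 30° C. Sigmoidal IC50 fits were converted to apparent Ki using Cheng-Prusoff.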

MYLK = MYLK (Homo sapiens, UniProt Q15746); test: MYLK assay (LanthaScreen Eu Kinase Binding Assay)
Chain of MYLK (Q15746 whole entry): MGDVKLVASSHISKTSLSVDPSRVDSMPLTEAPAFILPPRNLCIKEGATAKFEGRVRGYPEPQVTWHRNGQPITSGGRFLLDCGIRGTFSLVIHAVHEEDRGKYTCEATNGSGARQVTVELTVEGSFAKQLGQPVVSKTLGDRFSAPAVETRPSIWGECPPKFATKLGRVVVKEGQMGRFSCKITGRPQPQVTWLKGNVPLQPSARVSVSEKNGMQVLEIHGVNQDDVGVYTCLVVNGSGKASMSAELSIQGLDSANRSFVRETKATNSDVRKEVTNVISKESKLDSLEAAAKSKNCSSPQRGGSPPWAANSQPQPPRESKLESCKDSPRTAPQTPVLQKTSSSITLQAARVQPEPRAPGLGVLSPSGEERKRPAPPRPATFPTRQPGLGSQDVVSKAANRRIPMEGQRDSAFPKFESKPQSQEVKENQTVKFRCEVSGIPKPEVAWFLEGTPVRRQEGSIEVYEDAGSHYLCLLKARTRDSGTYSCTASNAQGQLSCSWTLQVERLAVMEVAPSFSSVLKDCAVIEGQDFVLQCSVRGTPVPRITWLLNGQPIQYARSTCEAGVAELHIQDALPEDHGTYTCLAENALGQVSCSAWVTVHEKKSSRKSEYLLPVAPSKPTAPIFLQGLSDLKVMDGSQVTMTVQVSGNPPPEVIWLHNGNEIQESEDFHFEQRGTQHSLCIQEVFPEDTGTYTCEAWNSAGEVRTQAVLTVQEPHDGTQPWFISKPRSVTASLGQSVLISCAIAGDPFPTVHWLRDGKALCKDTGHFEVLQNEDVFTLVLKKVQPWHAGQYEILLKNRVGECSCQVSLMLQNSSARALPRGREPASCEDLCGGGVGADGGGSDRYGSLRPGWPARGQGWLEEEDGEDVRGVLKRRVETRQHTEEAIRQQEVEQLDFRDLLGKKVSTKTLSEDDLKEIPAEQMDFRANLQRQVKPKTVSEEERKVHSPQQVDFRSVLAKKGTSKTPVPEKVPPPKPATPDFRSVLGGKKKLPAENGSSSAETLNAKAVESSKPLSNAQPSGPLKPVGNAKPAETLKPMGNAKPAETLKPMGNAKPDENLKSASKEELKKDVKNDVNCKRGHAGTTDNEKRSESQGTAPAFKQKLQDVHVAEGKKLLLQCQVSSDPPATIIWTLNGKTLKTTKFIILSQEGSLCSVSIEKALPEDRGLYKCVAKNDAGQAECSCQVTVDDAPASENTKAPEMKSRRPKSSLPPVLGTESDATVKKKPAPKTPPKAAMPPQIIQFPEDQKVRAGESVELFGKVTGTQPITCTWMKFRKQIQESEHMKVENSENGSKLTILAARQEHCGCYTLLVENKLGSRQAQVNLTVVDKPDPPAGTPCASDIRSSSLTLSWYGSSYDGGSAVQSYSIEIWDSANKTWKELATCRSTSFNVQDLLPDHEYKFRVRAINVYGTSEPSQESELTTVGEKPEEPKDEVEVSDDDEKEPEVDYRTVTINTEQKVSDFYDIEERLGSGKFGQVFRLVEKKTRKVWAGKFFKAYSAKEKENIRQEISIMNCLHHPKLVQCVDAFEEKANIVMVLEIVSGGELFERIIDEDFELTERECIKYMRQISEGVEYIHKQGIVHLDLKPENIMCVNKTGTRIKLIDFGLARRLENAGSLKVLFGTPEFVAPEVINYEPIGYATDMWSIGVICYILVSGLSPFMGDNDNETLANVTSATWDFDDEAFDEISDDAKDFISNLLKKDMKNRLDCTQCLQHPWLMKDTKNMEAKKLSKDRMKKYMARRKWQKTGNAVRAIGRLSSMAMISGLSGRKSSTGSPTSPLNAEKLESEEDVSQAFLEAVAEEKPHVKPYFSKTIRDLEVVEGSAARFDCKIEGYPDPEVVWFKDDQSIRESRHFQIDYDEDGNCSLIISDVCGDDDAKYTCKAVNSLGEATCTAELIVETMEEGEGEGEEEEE
Method: In the assay LanthaScreen™ Eu Kinase Binding Assay by Invitrogen Corporation (Carlsbad) the effect of invention of a compound on the phosphorylation is determined by measurement of fluorescence intensity emission ratio based on the binding and displacement of a proprietary, Alexa Fluor® 647-labeled, ATP-competitive kinase inhibitor scaffold (kinase tracer) to the kinase of interest as described above.
To the wells of an 384 well small volume plate (Greiner, Frickenhausen) are added (i) the compound under test in 5% DMSO/distilled water (5 μl), (ii) 5 μl of the kinase antibody mixture resulting in a final concentration 5 nM MYLK, 2 nM EU-Anti-GST antibody in 1× kinase buffer A. The reaction was started with addition of (iii) 5 μl resulting in a final concentration of 30 nM tracer 236. The assay plate was incubated at RT for 1 h and fluorescence intensitiy readings were collected using a TECAN M1000 at two wavelengthes of λex 340/λem 615 nm and λex 340/λem 665 nm with a delay time of 100 μs and an integration time of 200 μs after 60 minutes. The emission ratio was calculated by division of the acceptor/tracer emission ([…]) by the antibody/donor emission ([…]). The inhibitor concentration was plotted versus the emission ratio to determine the IC50 using XLFit 5.0 (IDBS, Guildford) to fit to a sigmoidal dose response curve with a variable slope.

LRRK2 = LRRK2 (Homo sapiens, UniProt Q5S007); test: LRRK2 assay (LanthaScreen Eu Kinase Binding Assay)
Chain of LRRK2 (Q5S007 970-2527 limits assumed): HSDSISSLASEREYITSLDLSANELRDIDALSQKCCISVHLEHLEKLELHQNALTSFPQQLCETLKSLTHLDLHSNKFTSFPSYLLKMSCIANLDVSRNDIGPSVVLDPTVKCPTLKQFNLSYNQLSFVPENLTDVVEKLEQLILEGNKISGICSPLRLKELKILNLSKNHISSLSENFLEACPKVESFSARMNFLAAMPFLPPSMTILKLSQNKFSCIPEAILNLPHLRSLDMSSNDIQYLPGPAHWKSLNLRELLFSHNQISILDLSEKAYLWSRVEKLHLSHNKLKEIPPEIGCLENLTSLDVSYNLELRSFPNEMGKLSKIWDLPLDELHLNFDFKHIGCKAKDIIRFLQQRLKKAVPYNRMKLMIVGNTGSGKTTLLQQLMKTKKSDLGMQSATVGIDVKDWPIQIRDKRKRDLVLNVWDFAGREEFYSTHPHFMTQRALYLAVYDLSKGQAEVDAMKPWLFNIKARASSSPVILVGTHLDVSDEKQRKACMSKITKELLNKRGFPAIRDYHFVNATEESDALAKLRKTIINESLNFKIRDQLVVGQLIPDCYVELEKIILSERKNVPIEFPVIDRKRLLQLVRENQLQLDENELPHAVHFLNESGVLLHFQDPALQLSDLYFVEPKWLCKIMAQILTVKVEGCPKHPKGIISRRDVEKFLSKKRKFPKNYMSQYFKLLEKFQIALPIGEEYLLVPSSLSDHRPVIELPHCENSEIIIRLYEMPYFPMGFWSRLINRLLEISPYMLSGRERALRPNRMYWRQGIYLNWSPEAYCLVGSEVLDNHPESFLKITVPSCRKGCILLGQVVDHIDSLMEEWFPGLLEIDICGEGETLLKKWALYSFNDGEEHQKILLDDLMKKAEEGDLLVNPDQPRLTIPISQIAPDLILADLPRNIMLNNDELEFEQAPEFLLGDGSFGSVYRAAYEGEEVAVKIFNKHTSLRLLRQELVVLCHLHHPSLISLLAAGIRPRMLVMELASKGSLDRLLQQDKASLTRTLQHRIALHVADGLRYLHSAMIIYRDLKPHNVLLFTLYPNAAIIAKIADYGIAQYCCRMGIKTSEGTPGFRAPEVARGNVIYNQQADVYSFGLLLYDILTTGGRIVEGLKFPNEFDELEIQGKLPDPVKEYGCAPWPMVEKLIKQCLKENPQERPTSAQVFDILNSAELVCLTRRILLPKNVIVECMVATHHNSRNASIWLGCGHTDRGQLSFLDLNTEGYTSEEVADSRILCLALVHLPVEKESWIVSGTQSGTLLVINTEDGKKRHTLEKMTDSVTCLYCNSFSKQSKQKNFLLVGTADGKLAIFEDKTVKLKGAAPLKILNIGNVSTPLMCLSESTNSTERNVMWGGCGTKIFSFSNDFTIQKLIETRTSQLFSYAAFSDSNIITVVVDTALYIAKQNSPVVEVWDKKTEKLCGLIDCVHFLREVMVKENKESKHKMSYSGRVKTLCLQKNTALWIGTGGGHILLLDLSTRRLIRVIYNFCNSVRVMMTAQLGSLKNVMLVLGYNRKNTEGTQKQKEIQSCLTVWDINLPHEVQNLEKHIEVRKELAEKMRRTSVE
Method in brief: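 IC50 was derived from a sigmoidal dose-response fit with variable slope, plotting emission ratio against inhibitor concentration. The read-out is loss of FRET between a europium-labelled anti-tag antibody on the kinase and a tracer displaced by inhibitor.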

[1] = 5 nM MYLK, 30 nM tracer 236, RT 1 h, read-out: MYLK Activites: IC50
[2] = 5 nM LRRK2, 10 nM tracer 236, RT 1 h, read-out: LRRK2 Activites: IC50
[3] = LRRK2 Activites: IC50, 5 nM LRRK2, 10 nM tracer 236, RT 1 h

Cc1cc(Nc2nc3ccc(Br)cc3c3c[nH]nc23)cc2cn[nH]c12 [Example #41, (8-Bromo-2H-pyrazolo[3,4-c]quinolin-4-yl)-(7-methyl-1H-indazol-5-yl)-amine]
Ki (SYK kinase): 0.01 to 0.1 µM
IC50 (MYLK; [1]): < 5 µM

COc1ccc2nc(Nc3ccc(C(N)=O)cc3)c3n[nH]cc3c2c1 [Example #58, 4-(8-Methoxy-2H-pyrazolo[3,4-c]quinolin-4-ylamino)-benzamide]
Ki (SYK kinase): 0.01 to 0.1 µM
IC50 (MYLK; [1]): < 5 µM

O=C1COc2ccc(Nc3nc4ccc(Br)cc4c4c[nH]nc34)cc2N1 [Example #116, 6-(8-Bromo-2H-pyrazolo[3,4-c]quinolin-4-ylamino)-4H-benzo[1,4]oxazin-3-one]
IC50 (MYLK; [1]): < 5 µM

COc1ccc2nc(Nc3cccc(C(C)=O)c3)c3n[nH]cc3c2c1 [Example #127, 1-[3-(8-Methoxy-2H-pyrazolo[3,4-c]quinolin-4-ylamino)-phenyl]-ethanone]
IC50 (LRRK2; [2]): 0.1 to 1 µM
IC50 (MYLK; [1]): < 5 µM

COc1ccc2nc(Nc3nccc(N)n3)c3n[nH]cc3c2c1 [Example #139, N2-(8-methoxy-2H-pyrazolo[3,4-c]quinolin-4-yl)pyrimidine-2,4-diamine]
Ki (SYK kinase): 0.1 to 1 µM
IC50 (MYLK; [1]): < 5 µM

COc1ccc2nc(Nc3ccc4ncc(=O)[nH]c4c3)c3n[nH]cc3c2c1 [Example #194, 7-(8-Methoxy-2H-pyrazolo[3,4-c]quinolin-4-ylamino)-1H-quinoxalin-2-one]
Ki (SYK kinase): 0.1 to 1 µM
IC50 (MYLK; [1]): < 5 µM

COc1cccc2c1nc(Nc1ccc(CN(C)C)cc1)c1n[nH]cc12 [Example #233, (4-Dimethylaminomethyl-phenyl)-(6-methoxy-2H-pyrazolo[3,4-c]quinolin-4-yl)-amine]
Ki (SYK kinase): < 0.01 µM
IC50 (MYLK; [1]): < 5 µM

COc1cccc2c1nc(Nc1ccccc1)c1n[nH]cc12 [Example #261, (6-Methoxy-2H-pyrazolo[3,4-c]quinolin-4-yl)-phenyl-amine]
Ki (SYK kinase): 0.01 to 0.1 µM
IC50 (MYLK; [1]): < 5 µM

COc1ccc2c(c1)nc(Nc1ccc3[nH]cnc3c1)c1n[nH]cc12 [Example #263, (1H-Benzoimidazol-5-yl)-(7-methoxy-2H-pyrazolo[3,4-c]quinolin-4-yl)-amine]
Ki (SYK kinase): < 0.01 µM
IC50 (MYLK; [1]): < 5 µM

COc1cccc2c1nc(Nc1ccc(CN3CCN(C)CC3)cc1)c1n[nH]cc12 [Example #278, (6-Methoxy-2H-pyrazolo[3,4-c]quinolin-4-yl)-[4-(4-methyl-piperazin-1-ylmethyl)-phenyl]-amine]
Ki (SYK kinase): 0.1 to 1 µM
IC50 (MYLK; [1]): < 5 µM

COc1ccc2nc(Nc3cccc(C(=O)O)c3)c3n[nH]cc3c2c1 [Example #287, 3-((8-methoxy-2H-pyrazolo[3,4-c]quinolin-4-yl)amino)benzoic acid]
Ki (SYK kinase): 0.1 to 1 µM
IC50 (MYLK; [1]): < 5 µM

COc1ccc2nc(Nc3ccc4c(c3)NC(=O)CO4)c3[nH]ncc3c2c1 [Example #291, 6-((8-methoxy-2H-pyrazolo[3,4-c]quinolin-4-yl)amino)-2H-benzo[b][1,4]oxazin-3(4H)-one]
Ki (SYK kinase): < 0.01 µM
IC50 (MYLK; [1]): < 5 µM

COc1ccc2nc(Nc3ccc(N4CCS(=O)(=O)CC4)cc3)c3n[nH]cc3c2c1 [Example #292, 4-(4-((8-methoxy-2H-pyrazolo[3,4-c]quinolin-4-yl)amino)phenyl)thiomorpholine 1,1-dioxide]
Ki (SYK kinase): < 0.01 µM
IC50 (MYLK; [1]): < 5 µM

COc1ccc2nc(Nc3ccc(C(=O)N4CCC(N5CCN(C)CC5)CC4)cc3OC)c3n[nH]cc3c2c1 [Example #295, (3-methoxy-4-((8-methoxy-2H-pyrazolo[3,4-c]quinolin-4-yl)amino)phenyl)(4-(4-methylpiperazin-1-yl)piperidin-1-yl)methanone]
IC50 (LRRK2; [2]): 0.01 to 0.1 µM
IC50 (MYLK; [1]): < 5 µM

COc1ccc2nc(Nc3ccc(C(=O)N4CCCN(C)CC4)cc3)c3n[nH]cc3c2c1 [Example #304, (4-((8-methoxy-2H-pyrazolo[3,4-c]quinolin-4-yl)amino)phenyl)(4-methyl-1,4-diazepan-1-yl)methanone]
IC50 (LRRK2; [2]): 0.1 to 1 µM
IC50 (MYLK; [1]): < 5 µM

COc1ccc2nc(Nc3ccc(C(=O)N4CCC(=O)CC4)cc3)c3n[nH]cc3c2c1 [Example #305, 1-(4-((8-methoxy-2H-pyrazolo[3,4-c]quinolin-4-yl)amino)benzoyl)piperidin-4-one]
IC50 (LRRK2; [3]): 0.01 to 0.1 µM
IC50 (MYLK): < 5 µM

COc1ccc2nc(Nc3ccc(C(=O)N4CCC5(CC4)OCCO5)cc3)c3n[nH]cc3c2c1 [Example #306, (4-((8-methoxy-2H-pyrazolo[3,4-c]quinolin-4-yl)amino)phenyl)(1,4-dioxa-8-azaspiro[4.5]decan-8-yl)methanone]
IC50 (LRRK2; [3]): 0.01 to 0.1 µM
IC50 (MYLK): < 5 µM

COc1ccc2nc(Nc3ccc(C(=O)N4CCC(N(C)C)C4)cc3)c3n[nH]cc3c2c1 (stereo not shown) [Example #307, (3-(dimethylamino)pyrrolidin-1-yl)(4-((8-methoxy-2H-pyrazolo[3,4-c]quinolin-4-yl)amino)phenyl)methanone]
IC50 (LRRK2; [2]): 0.1 to 1 µM
IC50 (MYLK; [1]): < 5 µM

O=C(c1ccc(Nc2nc3ccc(F)cc3c3cn[nH]c23)cc1)N1CCCC1 [Example #322, (4-((8-fluoro-3H-pyrazolo[3,4-c]quinolin-4-yl)amino)phenyl) (pyrrolidin-1-yl)methanone]
IC50 (MYLK; [1]): < 5 µM

CN1CCN(c2ccc(Nc3nc4ccc(F)cc4c4cn[nH]c34)cc2)CC1 [Example #326, 8-fluoro-N-(4-(4-methylpiperazin-1-yl)phenyl)-3H-pyrazolo[3,4-c]quinolin-4-amine]
Ki (SYK kinase): 0.01 to 0.1 µM
IC50 (MYLK; [1]): < 5 µM

COc1ccc(Nc2nc3ccc(F)cc3c3cn[nH]c23)cc1OC [Example #327, N-(3,4-dimethoxyphenyl)-8-fluoro-3H-pyrazolo[3,4-c]quinolin-4-amine]
Ki (SYK kinase): 0.1 to 1 µM
IC50 (MYLK; [1]): < 5 µM

CN1CCN(c2ccc(Nc3nc4cc(F)ccc4c4cn[nH]c34)cc2)CC1 [Example #337, 7-fluoro-N-(4-(4-methylpiperazin-1-yl)phenyl)-3H-pyrazolo[3,4-c]quinolin-4-amine]
Ki (SYK kinase): 0.01 to 0.1 µM
IC50 (MYLK; [1]): < 5 µM

COc1cc(Nc2nc3ccc(OC)cc3c3c[nH]nc23)cc(OC)c1 [Example #341, N-(3,5-dimethoxyphenyl)-8-methoxy-2H-pyrazolo[3,4-c]quinolin-4-amine]
Ki (SYK kinase): 0.1 to 1 µM
IC50 (MYLK; [1]): < 5 µM

COc1ccc2nc(Nc3cccc(S(=O)(=O)N4CCOCC4)c3)c3n[nH]cc3c2c1 [Example #349, 8-methoxy-N-(3-(morpholinosulfonyl)phenyl)-2H-pyrazolo[3,4-c]quinolin-4-amine]
Ki (SYK kinase): 0.1 to 1 µM
IC50 (MYLK; [1]): < 5 µM

COc1ccc2nc(Nc3cccc(S(=O)(=O)C(F)(F)F)c3)c3n[nH]cc3c2c1 [Example #350, 8-methoxy-N-(3-((trifluoromethyl)sulfonyl)phenyl)-2H-pyrazolo[3,4-c]quinolin-4-amine]
Ki (SYK kinase): 0.1 to 1 µM
IC50 (MYLK; [1]): < 5 µM

COc1cccc2nc(Nc3ccc4c(c3)CN(C)C4)c3[nH]ncc3c12 [Example #352, 9-methoxy-N-(2-methylisoindolin-5-yl)-3H-pyrazolo[3,4-c]quinolin-4-amine]
IC50 (LRRK2; [2]): 0.01 to 0.1 µM
IC50 (MYLK; [1]): < 5 µM

COc1ccc(Nc2nc3ccc(I)cc3c3cn[nH]c23)cc1OC [Example #354, N-(3,4-dimethoxyphenyl)-8-iodo-3H-pyrazolo[3,4-c]quinolin-4-amine]
Ki (SYK kinase): 0.1 to 1 µM
IC50 (MYLK; [1]): < 5 µM

CC(=O)N1CCN(c2ccc(Nc3nc4ccc(I)cc4c4cn[nH]c34)cc2)CC1 [Example #357, 1-(4-(4-((8-iodo-3H-pyrazolo[3,4-c]quinolin-4-yl)amino)phenyl)piperazin-1-yl)ethan-1-one]
Ki (SYK kinase): 0.01 to 0.1 µM
IC50 (LRRK2; [2]): 0.1 to 1 µM

COc1ccc2nc(Nc3ccc(F)cc3F)c3n[nH]cc3c2c1 [Example #360, N-(2,4-difluorophenyl)-8-methoxy-2H-pyrazolo[3,4-c]quinolin-4-amine]
IC50 (MYLK; [1]): < 5 µM

COc1ccc(Nc2nc3cccc(F)c3c3cn[nH]c23)cc1OC [Example #361, N-(3,4-dimethoxyphenyl)-9-fluoro-3H-pyrazolo[3,4-c]quinolin-4-amine]
Ki (SYK kinase): 0.1 to 1 µM
IC50 (LRRK2; [2]): 0.1 to 1 µM

CS(=O)(=O)c1cccc(Nc2nc3cccc(F)c3c3cn[nH]c23)c1 [Example #362, 9-fluoro-N-(3-(methylsulfonyl)phenyl)-3H-pyrazolo[3,4-c]quinolin-4-amine]
Ki (SYK kinase): < 0.01 µM
IC50 (LRRK2; [2]): 0.1 to 1 µM

CN1CCN(C2CCN(c3ccc(Nc4nc5cccc(F)c5c5cn[nH]c45)cc3)CC2)CC1 [Example #363, 9-fluoro-N-(4-(4-(4-methylpiperazin-1-yl)piperidin-1-yl)phenyl)-3H-pyrazolo[3,4-c]quinolin-4-amine]
Ki (SYK kinase): 0.01 to 0.1 µM
IC50 (LRRK2; [2]): 0.01 to 0.1 µM
